Test results taken from paper PMC6395927, “Rufomycin Targets ClpC1 Proteolysis in Mycobacterium tuberculosis and M. abscessus” (Antimicrobial Agents and Chemotherapy, 2019).
≈ marks a conversion by molar mass, not a printed value. Read-outs that look alike come from different tables or passages of the source. Numbered stars: 1 amine (or outer) side, 2 acyl side, 3 side chain; on linkers, the order of the positions; unused ones are H or OH. Square brackets hold non-standard residues; d marks the D form. Peptide text beside a SMILES is read from it. ξ: configuration not given here. Trp(1-(1,1-Me2-allyl)) = C=CC(C)(C)n1cc(C[C@H](N)C(=O)O)c2ccccc21; X4 = CC(C)(C1CO1)n1cc(C[C@H](N[*:1])C(=O)[*:2])c2ccccc21; Tyr(3-NO2) = N[C@@H](Cc1ccc(O)c([N+](=O)[O-])c1)C(=O)O; X3 = CC(CC(C(=O)[*:2])N(C)[*:1])C(=O)O; Gly(E-crotyl) = C/C=C/C[C@H](N)C(=O)O; NMeL = CN[C@@H](CC(C)C)C(=O)O; ξNMeL = CNC(CC(C)C)C(=O)O

What was measured:
[1] = tested on: Candida albicans (ATCC 10231); assay: MIC against nonmycobacteria (OD570); format: cell-based; details: ATCC10231, C. albicans
From the text: Standard compounds used were ampicillin (AMP) and gentamicin (GEN). […] Amphotericin B (AmphB) and ketoconazole (KETO) were used as standard compounds.

[2] = tested on: M. smegmatis (ATCC 700084); assay: microbe, parasite or virus in culture; format: cell-based; details: Mycolicibacterium smegmatis, ATCC700084; M. smegmatis; read-out: MIC
[3] = tested on: M. abscessus (ATCC 19977); assay: microbe, parasite or virus in culture; format: cell-based, Mycobacterium abscessus; details: Mycobacteroides abscessus, ATCC19977, M. abscessus; read-out: MIC
[4] = tested on: M. chelonae (ATCC 35752); assay: microbe, parasite or virus in culture; format: cell-based, Mycobacterium chelonae; details: Mycobacteroides chelonae, ATCC35752; M. chelonae; read-out: MIC
[5] = tested on: M. marinum (ATCC 927); assay: microbe, parasite or virus in culture; format: cell-based; details: Mycobacterium marinum, ATCC927; M. marinum; read-out: MIC
[6] = tested on: M. bovis (ATCC 35734); assay: microbe, parasite or virus in culture; format: cell-based; details: Mycobacterium tuberculosis variant bovis, ATCC35734
[7] = tested on: M. kansasii (ATCC 12478); assay: microbe, parasite or virus in culture; format: cell-based; details: Mycobacterium kansasii, ATCC12478; M. kansasii; read-out: MIC
[8] = tested on: M. avium (ATCC 15769); assay: microbe, parasite or virus in culture; format: cell-based; details: Mycobacterium avium, ATCC15769; M. avium; read-out: MIC
[9] = tested on: M. tuberculosis strain H37Rv (ATCC 27294); assay: microbe, parasite or virus in culture; format: cell-based, Mycobacterium tuberculosis
[10] = tested on: M. tuberculosis 5 global clade representatives; assay: microbe, parasite or virus in culture; format: cell-based; details: Mycobacterium tuberculosis, read-out: MICs
[11] = Mycobacterium tuberculosis, read-out: MIC against M. tuberculosis

`C[C@@H]1[C@H](O)[C@@H](C)/C=C/C=C/C=C/C=C/C=C/C=C/C=C/[C@H](O[C@@H]2O[C@H](C)[C@@H](O)[C@H](N)[C@@H]2O)C[C@@H]2O[C@](O)(C[C@@H](O)C[C@@H](O)[C@H](O)CC[C@@H](O)C[C@@H](O)CC(=O)O[C@H]1C)C[C@H](O)[C@H]2C(=O)O` [AmphB, amphotericin B] showed an MIC [1] of 2.6 µM (≈ 2.4 µg/mL).
`CC(C)/N=c1\cc2n(-c3ccc(Cl)cc3)c3ccccc3nc-2cc1Nc1ccc(Cl)cc1` [CLO, clofazimine] gave an MIC [2] of 2.39 µM (≈ 1.13 µg/mL), an MIC [3] of 9.23 µM (≈ 4.37 µg/mL) and an MIC [4] of 10 µM (≈ 4.73 µg/mL). It also gave an MIC [5] of 0.34 µM (≈ 0.161 µg/mL), an MIC [6] of less than 0.2 µM and an MIC [7] of less than 0.2 µM. For the same molecule, the MIC [8] was less than 0.2 µM.
Molecule `C=CC(C)(C)n1cc(C[C@@H]2NC(=O)[C@H](C/C=C/C)NC(=O)[C@H](CC(C)C)N3CC(C)CC(C3=O)N(C)C(=O)[C@H](C)NC(=O)[C@H](Cc3ccc(O)c([N+](=O)[O-])c3)NC(=O)[C@H](CC(C)C)N(C)C2=O)c2ccccc21` (stereo partly shown) [III] has an MIC [9, 11] of 1 µM (≈ 1.01 µg/mL).
Work on `C/C=C/C[C@@H]1NC(=O)[C@H](CC(C)C)N2C(=O)C(C[C@@H](C)[C@H]2O)N(C)C(=O)[C@H](C)NC(=O)[C@H](Cc2ccc(O)c([N+](=O)[O-])c2)NC(=O)[C@H](CC(C)C)N(C)C(=O)[C@H](Cc2cn(C(C)(C)C3CO3)c3ccccc23)NC1=O` (stereo partly shown) [II] yielded an MIC [9, 11] of 0.05 µM (≈ 0.0521 µg/mL).
In the case of `NNC(=O)c1ccncc1` [INH, isoniazid], the MIC ([9]; Mycobacterium tuberculosis) was 0.23 µM (≈ 0.0315 µg/mL), the MIC [10] was 0.25 to 0.47 µM (≈ 0.0343 to 0.0645 µg/mL) and the MIC [2] was 360 µM (≈ 49.4 µg/mL). The MIC [3] was greater than 8 µM, the MIC [4] was greater than 8 µM and the MIC [5] was greater than 8 µM. For the same molecule, the MIC [6] was 0.48 µM (≈ 0.0658 µg/mL), the MIC [7] was 3.84 µM (≈ 0.527 µg/mL) and the MIC [8] was greater than 8 µM.
`C/C=C/C[C@@H]1NC(=O)[C@H](CC(C)C)NC(=O)C(CC(C)C)N(C)C(=O)[C@H](C)NC(=O)[C@H](Cc2ccc(O)c([N+](=O)[O-])c2)NC(=O)[C@H](CC(C)C)NC(=O)[C@H](Cc2cn(C(C)(C)C3CO3)c3ccccc23)NC1=O` (stereo partly shown) [IV] (cyclo(A[ξNMeL]L[Gly(E-crotyl)][X4]L[Tyr(3-NO2)])) gave an MIC [9, 11] of 0.58 µM (≈ 0.588 µg/mL).
Molecule `CC(=O)N1CCN(c2ccc(OCC3COC(Cn4ccnc4)(c4ccc(Cl)cc4Cl)O3)cc2)CC1` (stereo not shown) [KETO, ketoconazole] has an MIC [1] of 0.98 µM (≈ 0.521 µg/mL).
For `CC(=O)NC[C@H]1CN(c2ccc(N3CCOCC3)c(F)c2)C(=O)O1` [LZD, linezolid], the MIC ([9]; Mycobacterium tuberculosis) was 1.8 µM (≈ 0.607 µg/mL) and the MIC [10] was 0.41 to 1.6 µM (≈ 0.138 to 0.54 µg/mL).
`COc1c(N2C[C@@H]3CCCN[C@@H]3C2)c(F)cc2c(=O)c(C(=O)O)cn(C3CC3)c12` [MXF, moxifloxacin] showed an MIC ([9]; Mycobacterium tuberculosis) of 0.26 µM (≈ 0.104 µg/mL).
For `O=[N+]([O-])c1cn2c(n1)OC[C@@H](OCc1ccc(OC(F)(F)F)cc1)C2` [PA824, pretomanid], the MIC ([9]; Mycobacterium tuberculosis) was 0.04 µM (≈ 0.0144 µg/mL), the MIC [10] was 0.03 to 0.1 µM (≈ 0.0108 to 0.0359 µg/mL) and the MIC [3] was greater than 8 µM. For the same molecule, the MIC [4] was greater than 8 µM, the MIC [5] was greater than 8 µM and the MIC [6] was 0.1 µM (≈ 0.0359 µg/mL). It also gave an MIC [7] of 4.7 µM (≈ 1.69 µg/mL) and an MIC [8] greater than 8 µM.
With `[H]/N=C(/N)N[C@H]1[C@H](O)[C@@H](O)[C@H](O[C@@H]2O[C@@H](C)[C@](O)(C=O)[C@H]2O[C@@H]2O[C@@H](CO)[C@H](O)[C@@H](O)[C@@H]2NC)[C@@H](N/C(N)=N\[H])[C@@H]1O` [STR, streptomycin] the MIC ([9]; Mycobacterium tuberculosis) was 0.15 µM (≈ 0.0872 µg/mL).
`C/C=C/C[C@@H]1NC(=O)[C@H](CC(C)C)NC(=O)C(CC(C)C(=O)O)N(C)C(=O)[C@H](C)NC(=O)[C@H](Cc2ccc(O)c([N+](=O)[O-])c2)NC(=O)[C@H](CC(C)C)N(C)C(=O)[C@H](Cc2cn(C(C)(C)C3CO3)c3ccccc23)NC1=O` (stereo partly shown) [VII] (cyclo(A[X3]L[Gly(E-crotyl)][X4][NMeL][Tyr(3-NO2)])) gave an MIC [9, 11] of 1 µM (≈ 1.06 µg/mL).
Work on `C=CC(C)(C)n1cc(C[C@@H]2NC(=O)[C@H](C/C=C/C)NC(=O)[C@H](CC(C)C)NC(=O)C(CC(C)C)N(C)C(=O)[C@H](C)NC(=O)[C@H](Cc3ccc(O)cc3)NC(=O)[C@H](CC(C)C)N(C)C2=O)c2ccccc21` (stereo partly shown) [VI] (cyclo(A[ξNMeL]L[Gly(E-crotyl)][Trp(1-(1,1-Me2-allyl))][NMeL]Y)) yielded an MIC [9, 11] greater than 50 µM.
Molecule `C/C=C/C[C@@H]1NC(=O)[C@H](CC(C)C)NC(=O)C(CC(C)C)N(C)C(=O)[C@H](C)NC(=O)[C@H](Cc2ccc(O)c([N+](=O)[O-])c2)NC(=O)[C@H](CC(C)C)N(C)C(=O)[C@H](Cc2cn(C(C)(C)C3CO3)c3ccccc23)NC1=O` (stereo partly shown) [V] (cyclo(A[ξNMeL]L[Gly(E-crotyl)][X4][NMeL][Tyr(3-NO2)])) has an MIC [9, 11] of 0.07 µM (≈ 0.072 µg/mL).
Work on capreomycin yielded an MIC [9] of 0.39 µM.
